{"source": "patent US20060105375A1", "about": "“Bioretrosynthetic methods for preparing products and compositions related thereto” (priority 2004, published 2006)", "molecules": {"B1": {"name": "PNP (purine nucleoside phosphorylase) (Escherichia coli K-12) (protein)", "chain": "MATPHINAEMGDFADVVLMPGDPLRAKYIAETFLEDAREVNNVRGMLGFTGTYKGRKISVMGHGMGIPSCSIYTKELITDFGVKKIIRVGSCGAVLPHVKLRDVVIGMGACTDSKVNRIRFKDHDFAAIADFDMVRNAVDAAKALGIDARVGNLFSADLFYSPDGEMFDVMEKYGILGVEMEAAGIYGVAAEFGAKALTICTVSDHIRTHEQTTAAERQTTFNDMIKIALESVLLGDKE"}}, "key": {"[1]": {"system": "transformed E. coli BL21(DE3)", "experiment": "Growth of transformed E. coli in minimal medium (M9) with 1,2,4-triazole carboxamide protoxin", "format": "cell-based", "conditions": "200 μM, kanamycin, 96-well plates", "source_text": "It is widely appreciated that ribavirin is a broad-spectrum antiviral nucleoside analog. […] This would form the basis of a ready-made survival based bioassay for ribavirin-1-phosphate biosynthesis directed evolution (FIG. 20). In this selection scheme an E. coli library containing variants of the purine salvage enzyme hypoxanthine phosphoribosyltransferase (HPRT) is replicated into M9 media supplemented with 1,2,4-triazole carboxamide 7 “protoxin.” Active enzymes react triazole with endogenous PRPP 8 to form ribavirin monophosphate 5, an IMPDH poison resulting in growth inhibition. Negative controls with synthetically prepared 1,2,4-triazole carboxamide 7 and complementation experiments with guanosine monophosphate confirmed the validity of this method. Subsequently, a library of mutagenized HPRT in E. coli was evaluated. The assay can be improved by adding nutrients to the medium.\n(§1) A small mutant library of ca. 1000 members was replica plated into 96-well plates containing minimal medium (M9), kanamycin and 200 μM synthetically prepared 1,2,4-triazole carboxamide (2), a concentration found to be non-lethal to transformed E. coli BL21(DE3) under these conditions. Plates were grown for 5 days at 37° C. and cell growth was visualized by staining with tetrazolium blue. […] The mutant and wild type HPRT enzymes were expressed as His×6 tagged proteins and purified to homogeneity (FIG. 22B)."}, "[2]": {"system": "E. coli BL21(DE3) expressing mutant HPRT", "experiment": "Time course sensitivity determination by triazole dilution assay of HPRT mutant clones", "format": "cell-based", "conditions": "growth-impaired HPRT mutant clones, FIG. 22A", "source_text": "FIG. 22A is a graph of time course of sensitivity of clones identified by triazole sensitivity screening methodology. FIG. 22B is a SDS-PAGE gel of expression and nickel affinity purification of 8B3 HPRT. Left is cell-free extract and right is purified 8B3.\nIt is widely appreciated that ribavirin is a broad-spectrum antiviral nucleoside analog. […] This would form the basis of a ready-made survival based bioassay for ribavirin-1-phosphate biosynthesis directed evolution (FIG. 20). In this selection scheme an E. coli library containing variants of the purine salvage enzyme hypoxanthine phosphoribosyltransferase (HPRT) is replicated into M9 media supplemented with 1,2,4-triazole carboxamide 7 “protoxin.” Active enzymes react triazole with endogenous PRPP 8 to form ribavirin monophosphate 5, an IMPDH poison resulting in growth inhibition. […] Subsequently, a library of mutagenized HPRT in E. coli was evaluated. […]\nas §1, with “conditions.” for “conditions. Plates were grown for 5 days at 37° C. and cell growth was visualized by staining with tetrazolium blue.”"}, "[3]": {"target": "inosine monophosphate dehydrogenase (IMPDH) (Escherichia coli, UniProt P0ADG7)", "sequence (P0ADG7 whole entry)": "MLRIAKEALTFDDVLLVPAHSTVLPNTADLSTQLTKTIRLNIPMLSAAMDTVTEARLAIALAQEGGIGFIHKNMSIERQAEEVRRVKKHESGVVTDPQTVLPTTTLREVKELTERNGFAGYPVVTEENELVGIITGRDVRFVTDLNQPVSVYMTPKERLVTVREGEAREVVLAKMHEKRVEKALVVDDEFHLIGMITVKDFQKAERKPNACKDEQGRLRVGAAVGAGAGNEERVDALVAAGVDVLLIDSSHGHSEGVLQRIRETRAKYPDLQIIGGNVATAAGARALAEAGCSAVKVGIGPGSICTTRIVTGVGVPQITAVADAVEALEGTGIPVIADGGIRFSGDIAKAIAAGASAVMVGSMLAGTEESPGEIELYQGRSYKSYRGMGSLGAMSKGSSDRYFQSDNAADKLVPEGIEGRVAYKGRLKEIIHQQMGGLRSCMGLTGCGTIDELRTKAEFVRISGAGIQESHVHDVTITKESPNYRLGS", "conditions": "cited from earlier work"}, "[4]": {"target": "T1, PNP (purine nucleoside phosphorylase) (Escherichia coli, UniProt P0ABP8)", "T1 sequence (P0ABP8 1-239)": "B1 chain", "experiment": "Phosphorolysis of inosine vs. dideoxyinosine by PNP (basal activity, Lineweaver-Burke plot)", "format": "biochemical, E. coli", "conditions": "apparent Km values"}, "[5]": {"substrate": "OC[C@H]1O[C@@H](n2cnc3c(O)ncnc32)[C@H](O)[C@@H]1O", "experiment": "Phosphorolysis of inosine vs. dideoxyinosine by PNP (basal activity, Lineweaver-Burke plot)", "format": "biochemical, E. coli", "conditions": "other: substrate of PNP; reverse reaction (phosphorolysis, release of hypoxanthine) monitored with colorimetric assay of FIG. 7"}}, "note": "Read-outs that look alike come from different tables or passages of the source.", "data": [{"molecule": "NC(=O)c1nc[nH]n1", "note": "[1,2,4-triazole carboxamide]", "values": [{"measurement": "lethality to transformed E. coli BL21(DE3)", "setting": "[1]", "value": "non-lethal"}, {"measurement": "susceptibility of HPRT mutants to triazole in vivo (versus wild type)", "setting": "[2]", "value": "> 2", "unit": "fold"}]}, {"molecule": "NC(=O)c1ncn([C@@H]2O[C@H](COP(=O)(O)O)[C@@H](O)[C@H]2O)n1", "note": "[ribavirin-1-phosphate 5, ribavirin monophosphate]", "values": [{"measurement": "inhibition of IMPDH", "setting": "[3]", "value": "potent competitive inhibitor"}, {"measurement": "inhibition of IMPDH", "setting": "[3]; listed as Ribavirin monophosphate", "value": "competitive inhibitor"}]}, {"molecule": "O=c1[nH]cnc2c1ncn2[C@H]1CC[C@@H](CO)O1", "note": "[ddI, dideoxyinosine]", "values": [{"measurement": "Km of ddI relative to that of inosine", "setting": "[4]", "value": "> 100", "unit": "times"}]}, {"molecule": "B1", "values": [{"measurement": "Km", "setting": "[5]", "value": 56, "unit": "µM"}]}]}
